pIC50: −log10 of the molar value.
Target: human DGAT2 (hDGAT2) (Homo sapiens (Human), UniProt Q96PD7)
Assay: DGAT2 Enzymatic Activity Assay
Format: biochemical
Details: membrane prep of Sf-9 insect cells expressing hDGAT2; 13C18-triolein product by LC/MS/MS
Experimental: Sf-9 insect cells were maintained in Grace's insect cell culture medium with 10% heated-inactivated fetal bovine serum, 1% Pluronic F-68 and 0.14 μg/ml Kanamycine sulfate at 27° C. in a shaker incubator. After infection with untagged baculovirus expressing human DGAT2 (hDGAT2) at multiplicity of infection (MOI) 3 for 48 hours, cells were harvested. Cell pellets were suspended in buffer containing 10 mM Tris-HCl pH 7.5, 1 mM EDTA, 250 mM sucrose and Complete Protease Inhibitor Cocktail (Sigma Aldrich), and sonicated on ice. Cell debris were removed by centrifugation at 2000×g for 15 minutes. Membrane fractions were isolated by ultracentrifugation (100,000×g), resuspended in the same buffer, and frozen (−80° C.) for later use. The protein concentration was determined with the Pierce™ BCA Protein Assay Kit (Thermo Fisher Scientific). Expression of protein levels was analyzed by immunoblotting with rabbit anti-DGAT2 antibody (Abcam, ab102831) and donkey anti-rabbit IgG H&L Alexa Fluor® 647 (Abcam, ab150075) followed by detection using Typhoon FLA9000 (GE Healthcare).
LC/MS/MS analyses were performed using Thermal Fisher's LX4-TSQ Vantage system. This system consists of an Agilent binary high-performance liquid chromatography (HPLC) pumps and a TSQ Vantage triple quadrupole MS/MS instrument. For each sample, 2 μL samples from the top organic layer of in-plate liquid-liquid extraction were injected onto a Thermo Betabasic C4 column (2.1 mm×20 mm, 5 μm particle size). The samples were then eluted using the following conditions; mobile phase: Isopropanol: acetonitrile/10 mM ammonium formate=50/35/15 (v/v/v), flow rate: 0.8 mL/min, temperature: 25° C. Data was acquired in positive mode using a heated electrospray ionization (HESI) interface. The operational parameters for the TSQ Vantage MS/MS instrument were a spray voltage of 3000 V, capillary temperature of 280° C., vaporizer temperature 400° C., sheath gas 45 arbitrary unit, Aux gas 10 arbitrary units, S-lens 165 and collision gas 1.0 mTorr. […] (SRM) chromatograms of ^13C18-triolein (Q1: 920.8>Q3:621.3) and internal standard ^13C21-triolein (Q1: 923.8>Q3:617.3) were collected for 33 sec. The peak area was integrated by Xcalibur Quan software. The ratio between the ^13C18 triolein generated in the reaction and spiked in internal standard ^13C21-triolein was used to generate percentage inhibition and IC50 values. Compound percentage inhibition was calculated by the following formula: Inhibition %=1−[(compound response−low control)/(high control−low control)]×100%. Potent compounds were titrated and IC50 were calculated by 4 parameter sigmoidal curve fitting formula.
DGAT2 activity was determined by measuring the amount of enzymatic product ^13C18-triolein (^13C-1,2,3-Tri(cis-9-octadecenoyl)glycerol) using the membrane prep mentioned above. The assay was carried out in ABgene 384-well assay plates in a final volume of 25 μL at rt. The assay mixture contained the following: assay buffer (100 mM Tris·Cl, pH 7.0, 20 mM MgCl2, 5% ethanol), 25 μM of diolein, 5 μM of ^13C oleoyl-CoA and 8 ng/μL of DGAT2 membrane.

Chain of human DGAT2 (hDGAT2) (Q96PD7 whole entry): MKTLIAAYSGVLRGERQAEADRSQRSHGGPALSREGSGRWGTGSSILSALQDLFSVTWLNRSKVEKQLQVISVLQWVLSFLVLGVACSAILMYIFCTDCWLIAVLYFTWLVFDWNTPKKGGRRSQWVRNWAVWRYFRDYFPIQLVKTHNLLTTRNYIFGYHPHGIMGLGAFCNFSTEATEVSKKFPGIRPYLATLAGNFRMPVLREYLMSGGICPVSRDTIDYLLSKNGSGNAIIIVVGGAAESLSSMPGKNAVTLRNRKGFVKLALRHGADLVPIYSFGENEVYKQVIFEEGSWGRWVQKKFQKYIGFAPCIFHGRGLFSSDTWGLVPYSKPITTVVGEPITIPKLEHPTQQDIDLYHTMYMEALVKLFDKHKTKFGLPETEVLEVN

pIC50 | SMILES
5.64 | CC(C)n1nc(-c2cccc(C3(C(F)(F)F)CC3)c2)c2ncc(C(=O)NC3(C)CS(=O)(=O)C3)cc21 [Example 107, 1-isopropyl-N-(3-methyl-1,1-dioxidothietan-3-yl)-3-(3-(1-(trifluoromethyl)cyclopropyl)phenyl)-1H-pyrazolo[4,3-b]pyridine-6-carboxamide]
6.96 | CC(C)n1nc(-c2cccc(C#N)c2)c2ncc(C(=O)NC3(C)CS(=O)(=O)C3)cc21 [Example 108, 3-(3-cyanophenyl)-1-isopropyl-N-(3-methyl-1,1-dioxidothietan-3-yl)-1H-pyrazolo[4,3-b]pyridine-6-carboxamide]
8.22 | CC(C)(O)Cn1nc(-c2cccc(C3CC3)c2)c2ncc(C(=O)NC3(C)CS(=O)(=O)C3)cc21 [Example 112, 3-(3-cyclopropylphenyl)-1-(2-hydroxy-2-methylpropyl)-N-(3-methyl-1,1-dioxidothietan-3-yl)-1H-pyrazolo[4,3-b]pyridine-6-carboxamide]
7.77 | CC1(NC(=O)c2cnc3c(-c4cccc(OC(F)F)c4)nn(-c4ncc(F)cn4)c3c2)CS(=O)(=O)C1 [Example 4, 3-(3-(difluoromethoxy)phenyl)-1-(5-fluoropyrimidin-2-yl)-N-(3-methyl-1,1-dioxidothietan-3-yl)-1H-pyrazolo[4,3-b]pyridine-6-carboxamide]
6.86 | CC(C)n1nc(-c2ccnc(OC(F)F)c2)c2ncc(C(=O)NC3(C)CS(=O)(=O)C3)cc21 [Example 100, 3-[2-(difluoromethoxy)-4-pyridyl]-1-isopropyl-N-(3-methyl-1,1-dioxo-thietan-3-yl)pyrazolo[4,3-b]pyridine-6-carboxamide]
6.41 | CC(C)(C)Cn1nc(-c2cccc(OC(F)F)c2)c2ncc(C(=O)NC3(C)CS(=O)(=O)C3)cc21 [Example 29, 3-(3-(difluoromethoxy)phenyl)-N-(3-methyl-1,1-dioxidothietan-3-yl)-1-neopentyl-1H-pyrazolo[4,3-b]pyridine-6-carboxamide]
7.70 | CC(C)n1nc(-c2cncc(OC(F)(F)F)c2)c2ncc(C(=O)NC3(C)CS(=O)(=O)C3)cc21 [Example 114, 1-isopropyl-N-(3-methyl-1,1-dioxidothietan-3-yl)-3-(5-(trifluoromethoxy)pyridin-3-yl)-1H-pyrazolo[4,3-b]pyridine-6-carboxamide]
5.72 | CC(C)n1nc(-c2cccc(C3(C#N)CC3)c2)c2ncc(C(=O)NC3(C)CS(=O)(=O)C3)cc21 [Example 110, 3-(3-(1-cyanocyclopropyl)phenyl)-1-isopropyl-N-(3-methyl-1,1-dioxidothietan-3-yl)-1H-pyrazolo[4,3-b]pyridine-6-carboxamide]
8.54 | CC1(C)CC(n2nc(-c3cccc(OC(F)F)c3)c3ncc(C(=O)NC4(C)CS(=O)(=O)C4)cc32)C1 [Example 89, 3-(3-(difluoromethoxy)phenyl)-1-(3,3-dimethylcyclobutyl)-N-(3-methyl-1,1-dioxidothietan-3-yl)-1H-pyrazolo[4,3-b]pyridine-6-carboxamide]
7.66 | CC(C)(O)Cn1nc(-c2cccc(OC(F)F)c2)c2ncc(C(=O)NC3(C)CS(=O)(=O)C3)cc21 [Example 111, 3-(3-(difluoromethoxy)phenyl)-1-(2-hydroxy-2-methylpropyl)-N-(3-methyl-1,1-dioxidothietan-3-yl)-1H-pyrazolo[4,3-b]pyridine-6-carboxamide]
7.19 | CC(C)n1nc(-c2cccc(OC(F)F)c2)c2ncc(C(=O)NC3(CO)CCOCC3)cc21 [Example 74, 3-(3-(difluoromethoxy)phenyl)-N-(4-(hydroxymethyl)tetrahydro-2H-pyran-4-yl)-1-isopropyl-1H-pyrazolo[4,3-b]pyridine-6-carboxamide]
9.00 | CC(C)n1nc(-c2cccc(OC(F)F)c2)c2c(F)cc(C(=O)NC3(C)CS(=O)(=O)C3)cc21 [Example 33, 3-(3-(difluoromethoxy)phenyl)-4-fluoro-1-isopropyl-N-(3-methyl-1,1-dioxidothietan-3-yl)-1H-indazole-6-carboxamide]

Continued, molecule first:

SMILES | pIC50
Cc1cc(C(=O)N[C@@]2(C)CCS(=O)(=O)C2)cc2c1c(-c1cccc(OC(F)F)c1)nn2C1CCOCC1 [Example 84, (S)-3-(3-(difluoromethoxy)phenyl)-4-methyl-N-(3-methyl-1,1-dioxidotetrahydrothiophen-3-yl)-1-(tetrahydro-2H-pyran-4-yl)-1H-indazole-6-carboxamide] | 7.89
CC(C)n1nc(-c2cc(OCC(F)F)ncc2F)c2ncc(C(=O)NC3(C)CS(=O)(=O)C3)cc21 [Example 121, 3-(2-(2,2-difluoroethoxy)-5-fluoropyridin-4-yl)-1-isopropyl-N-(3-methyl-1,1-dioxidothietan-3-yl)-1H-pyrazolo[4,3-b]pyridine-6-carboxamide] | 8.08
CC(C)n1nc(-c2cc(OC(F)F)ccc2F)c2cnc(C(=O)NC3(C)CS(=O)(=O)C3)cc21 [Example 36, 3-(5-(difluoromethoxy)-2-fluorophenyl)-1-isopropyl-N-(3-methyl-1,1-dioxidothietan-3-yl)-1H-pyrazolo[4,3-c]pyridine-6-carboxamide] | 8.77
C[C@]1(NC(=O)c2cc3c(cn2)c(-c2ccccc2Cl)cn3-c2ccc(F)cc2)CCS(=O)(=O)C1 [Example 14, (S)-3-(2-chlorophenyl)-1-(4-fluorophenyl)-N-(3-methyl-1,1-dioxidotetrahydrothiophen-3-yl)-1H-pyrrolo[3,2-c]pyridine-6-carboxamide] | 6.53
C[C@]1(NC(=O)c2cc3c(cn2)c(-c2cccc(OC(F)F)c2)cn3C2CCOCC2)CCS(=O)(=O)C1 [Example 82, (S)-3-(3-(difluoromethoxy)phenyl)-N-(3-methyl-1,1-dioxidotetrahydrothiophen-3-yl)-1-(tetrahydro-2H-pyran-4-yl)-1H-pyrrolo[3,2-c]pyridine-6-carboxamide] | 6.21
CC(C)(NC(=O)c1cnc2c(-c3cccc(OC(F)F)c3)cn(-c3ncc(F)cn3)c2c1)C(N)=O [Example 18, N-(1-amino-2-methyl-1-oxopropan-2-yl)-3-(3-(difluoromethoxy)phenyl)-1-(5-fluoropyrimidin-2-yl)-1H-pyrrolo[3,2-b]pyridine-6-carboxamide] | 5.47
CCN1CCN(C(=O)c2cnc3c(-c4cncc(OC(F)F)c4)nn(C(C)C)c3c2)CC1 [Example 58, (3-(5-(difluoromethoxy)pyridin-3-yl)-1-isopropyl-1H-pyrazolo[4,3-b]pyridin-6-yl)(4-ethylpiperazin-1-yl)methanone] | < 6.00
CC(O)C(C)NC(=O)c1cnc2c(-c3cccc(OC(F)F)c3)nn(C(C)C)c2c1 (stereo not shown) [Example 45a, 3-(3-(difluoromethoxy)phenyl)-N-(3-hydroxybutan-2-yl)-1-isopropyl-1H-pyrazolo[4,3-b]pyridme-6-carboxamide] | 7.64
CCOc1ccc(F)c(-c2nn(C(C)C)c3cc(C(=O)NC4(C)CS(=O)(=O)C4)cnc23)c1 [Example 115, 3-(5-ethoxy-2-fluorophenyl)-1-isopropyl-N-(3-methyl-1,1-dioxidothietan-3-yl)-1H-pyrazolo[4,3-b]pyridine-6-carboxamide] | 8.48
N[C@@H]1COC[C@H]1NC(=O)c1cnc2c(-c3cccc(OC(F)F)c3)cn(-c3ncc(F)cn3)c2c1 [Example 22, N-((3S,4S)-4-aminotetrahydrofuran-3-yl)-3-(3-(difluoromethoxy)phenyl)-1-(5-fluoropyrimidin-2-yl)-1H-pyrrolo[3,2-b]pyridine-6-carboxamide] | 6.20
